In brackets after ≈: the same amount, converted by molar mass.
Assays:
Assay type in all cases: cell-based
[1] = tested on: Neisseria gonorrhoeae 170; test: MIC broth microdilution, N. gonorrhoeae 170
Procedure: (§1) The minimum inhibitory concentrations (MICs) of the tested compounds and control drugs; Azithromycin, Cefixime and Tetracycline (antibiotics) were determined using the broth microdilution method as described in previous reports with minor modifications against clinically-relevant Neisseria gonorrhea strains. Strains were grown on Brucella broth supplemented with yeast extract, neopeptone, hematin, pyridoxal and NAD at 37° C. for 24 hours in presence of 5% CO2. […] Compounds and control drugs were added in the first row of the 96-well plates and serially diluted with media containing bacteria. Plates were then, incubated aerobically at 37° C. in the presence of 5% CO2 for 24 hours.

[2] = tested on: Neisseria gonorrhoeae 166; test: MIC broth microdilution, N. gonorrhoeae 166
Procedure: as §1

[3] = tested on: Neisseria gonorrhoeae 202; test: MIC broth microdilution, N. gonorrhoeae 202
Procedure: as §1

[4] = tested on: Neisseria gonorrhoeae 194; test: MIC broth microdilution, N. gonorrhoeae 194
Procedure: as §1

[5] = tested on: Neisseria gonorrhoeae 167; test: MIC broth microdilution, N. gonorrhoeae 167
Procedure: as §1

[6] = tested on: Neisseria gonorrhoeae isolate 191; test: MIC broth microdilution, initial screening against N. gonorrhoeae isolate 191; settings: 24 hours, 37° C., 5% CO2
Procedure: as §1

[7] = tested on: Neisseria gonorrhoeae 169; test: MIC broth microdilution, N. gonorrhoeae 169
Procedure: as §1

[8] = tested on: Neisseria gonorrhoeae 178; test: MIC broth microdilution, N. gonorrhoeae 178
Procedure: as §1

[9] = tested on: Neisseria gonorrhoeae 171; test: MIC broth microdilution, N. gonorrhoeae 171
Procedure: as §1

[10] = tested on: Neisseria gonorrhoeae 188; test: MIC broth microdilution, N. gonorrhoeae 188
Procedure: as §1

[11] = tested on: Neisseria gonorrhoeae 175; test: MIC broth microdilution, N. gonorrhoeae 175
Procedure: as §1

[12] = tested on: Neisseria gonorrhoeae 172; test: MIC broth microdilution, N. gonorrhoeae 172
Procedure: as §1

[13] = tested on: Neisseria gonorrhoeae 165; test: MIC broth microdilution, N. gonorrhoeae 165
Procedure: as §1

[14] = tested on: Neisseria gonorrhoeae 214; test: MIC broth microdilution, N. gonorrhoeae 214
Procedure: as §1

MIC [1]	MIC [2]	MIC [3]	MIC [4]	MIC [5]	MIC (Minimum inhibitory concentration) [6]	MIC [7]	MIC [8]	MIC [9]	MIC [10]	MIC [11]	MIC [12]	MIC [13]	MIC [14]	Structure (SMILES)
1 µg/mL (≈ 1.34 µM)	2 µg/mL (≈ 2.67 µM)	32 µg/mL (≈ 42.7 µM)	1 µg/mL (≈ 1.34 µM)	16 µg/mL (≈ 21.4 µM)	>128	1 µg/mL (≈ 1.34 µM)	1 µg/mL (≈ 1.34 µM)	0.25 µg/mL (≈ 0.334 µM)	2 µg/mL (≈ 2.67 µM)	16 µg/mL (≈ 21.4 µM)	> 128 µg/mL	1 µg/mL (≈ 1.34 µM)	0.5 µg/mL (≈ 0.668 µM)	CC[C@H]1OC(=O)[C@H](C)[C@@H](O[C@H]2C[C@@](C)(OC)[C@@H](O)[C@H](C)O2)[C@H](C)[C@@H](O[C@@H]2O[C@H](C)C[C@H](N(C)C)[C@H]2O)[C@](C)(O)C[C@@H](C)CN(C)[C@H](C)[C@@H](O)[C@]1(C)O [Azithromycin]
0.25 µg/mL (≈ 0.551 µM)	0.5 µg/mL (≈ 1.1 µM)	0.03 µg/mL (≈ 0.0662 µM)	1 µg/mL (≈ 2.21 µM)	0.06 µg/mL (≈ 0.132 µM)	0.06	0.25 µg/mL (≈ 0.551 µM)	0.25 µg/mL (≈ 0.551 µM)	0.25 µg/mL (≈ 0.551 µM)	0.25 µg/mL (≈ 0.551 µM)	0.03 µg/mL (≈ 0.0662 µM)	0.06 µg/mL (≈ 0.132 µM)	0.25 µg/mL (≈ 0.551 µM)	0.25 µg/mL (≈ 0.551 µM)	C=CC1=C(C(=O)O)N2C(=O)[C@@H](NC(=O)/C(=N\OCC(=O)O)c3csc(N)n3)[C@H]2SC1 [Cefixime]

Structure (SMILES)	MIC [1]	MIC [2]	MIC [3]	MIC [4]	MIC [5]	MIC (Minimum inhibitory concentration) [6]	MIC [7]	MIC [8]	MIC [9]	MIC [10]	MIC [11]	MIC [12]	MIC [13]	MIC [14]
CN(C)[C@@H]1C(O)=C(C(N)=O)C(=O)[C@@]2(O)C(O)=C3C(=O)c4c(O)cccc4[C@@](C)(O)[C@H]3C[C@@H]12 [Tetracycline]	4 µg/mL (≈ 9 µM)	2 µg/mL (≈ 4.5 µM)	1 µg/mL (≈ 2.25 µM)	1 µg/mL (≈ 2.25 µM)	1 µg/mL (≈ 2.25 µM)	1	4 µg/mL (≈ 9 µM)	16 µg/mL (≈ 36 µM)	2 µg/mL (≈ 4.5 µM)	2 µg/mL (≈ 4.5 µM)	1 µg/mL (≈ 2.25 µM)	1 µg/mL (≈ 2.25 µM)	8 µg/mL (≈ 18 µM)	4 µg/mL (≈ 9 µM)

Reference: patent publication US20250339401A1, “METHODS AND MATERIALS FOR TREATMENT OF NEISSERIA GONORRHOEAE INFECTION” (Purdue Research Foundation, priority 2021, published 2025)
